Measurements taken from ChEMBL document CHEMBL3259791, “Discovery of (E)-3-((styrylsulfonyl)methyl)pyridine and (E)-2-((styrylsulfonyl)methyl)pyridine derivatives as anticancer agents: synthesis, structure-activity relationships, and biological activities” (J Med Chem, 2014).
Calls of active or inactive are those of the source. No cut-off for these calls is given here.

Key:
[1] = test system: MCF7; test: Antiproliferative activity against human MCF7 cells assessed as cell growth inhibition after 72 hrs by MTT assay; assay type: functional; conditions: MCF7, 72 h
[2] = test system: HCT-116; test: Antiproliferative activity against human HCT116 cells assessed as cell growth inhibition after 72 hrs by MTT assay; assay type: functional; conditions: HCT-116, 72 h
[3] = test system: A2780; test: Antiproliferative activity against human A2780 cells assessed as cell growth inhibition after 72 hrs by MTT assay; assay type: functional; conditions: A2780, 72 h
[4] = Cmax in mouse at 10 mg/kg, po after 24 hrs; assay type: ADME, organism-based; set-up: dose 10 mg/kg, route oral; conditions: in vivo
[5] = AUC (0 to t) in mouse at 10 mg/kg, po after 24 hrs; assay type: ADME, organism-based; set-up: time < 24 hr, dose 10 mg/kg, route oral; conditions: plasma
[6] = Elimination half life in mouse at 10 mg/kg, po after 24 hrs; assay type: ADME, organism-based; set-up: dose 10 mg/kg, route oral; conditions: in vivo, read-out: beta t1/2 (converted)
[7] = Oral bioavailability (0 to t) in mouse at 10 mg/kg after 24 hrs; assay type: ADME, organism-based; conditions: in vivo
[8] = Octanol-buffer partition coefficient, log D of the compound at pH 7.4 by shake-flask method; assay type: physicochemical
[9] = Aqueous solubility of the compound by turbidimetric solubility assay; assay type: physicochemical; conditions: buffer
[10] = Apparent permeability across apical to basolateral side in human Caco2 cells; assay type: ADME, cell-based; conditions: Caco-2
[11] = Apparent permeability across basolateral to apical side in human Caco2 cells; assay type: ADME, cell-based; conditions: Caco-2
[12] = Half life in rat liver microsomes; assay type: ADME
[13] = test system: HCT-116; test: Antitumor activity against human HCT116 cells xenografted in mouse assessed as delay in tumor growth at 33.3 mg/kg, ip daily 5 days/week for 2 weeks; assay type: functional, organism-based; set-up: dose 33.3 mg/kg
[14] = test system: HCT-116; test: Antitumor activity against human HCT116 cells xenografted in mouse assessed as delay in tumor growth at 100 mg/kg, ip daily 5 days/week for 2 weeks; assay type: functional, organism-based; set-up: dose 100 mg/kg
[15] = test system: MCF7; test: Antiproliferative activity against ER positive human MCF7 cells assessed as cell growth inhibition after 72 hrs by MTT assay; assay type: functional; conditions: MCF7, 72 h
[16] = test system: MDA-MB-231; test: Antiproliferative activity against ER negative human MDA-MB-231 cells assessed as cell growth inhibition after 72 hrs by MTT assay; assay type: functional; conditions: MDA-MB-231, 72 h
[17] = test system: HeLa; test: Antiproliferative activity against human HeLa cells assessed as cell growth inhibition after 72 hrs by MTT assay; assay type: functional
[18] = Antiproliferative activity against human PANC1 cells assessed as cell growth inhibition after 72 hrs by MTT assay; assay type: functional; conditions: PANC-1, 72 h
[19] = test system: WI-38; test: Antiproliferative activity against human WI38 cells assessed as cell growth inhibition after 72 hrs by MTT assay; assay type: functional; conditions: WI-38, 72 h
[20] = Dissociation constant, pKa of the compound by pH-metric method; assay type: physicochemical
[21] = test system: A2780; test: Induction of apoptosis in human A2780 cells assessed as caspase-3/7 activation at […] after 24 hrs by using Apo-ONE homogeneous caspase-3/7 kit; assay type: functional, cell-based
[22] = test system: WI-38; test: Induction of apoptosis in human WI38 cells assessed as caspase-3/7 activation up to 1 uM after 24 hrs by using Apo-ONE homogeneous caspase-3/7 kit; assay type: functional, cell-based
[23] = test system: A2780; test: Reduction in CDC25C level in human A2780 cells at […] after 24 hrs by Western blot analysis; assay type: functional, cell-based
[24] = test system: A2780; test: Reduction in Mcl1 level in human A2780 cells at […] after 24 hrs by Western blot analysis; assay type: functional, cell-based
[25] = target: Voltage-gated inwardly rectifying potassium channel KCNH2 (Homo sapiens, UniProt Q12809); test: Inhibition of human ERG expressed in CHO cells
Sequence of Voltage-gated inwardly rectifying potassium channel KCNH2 (Q12809 whole entry): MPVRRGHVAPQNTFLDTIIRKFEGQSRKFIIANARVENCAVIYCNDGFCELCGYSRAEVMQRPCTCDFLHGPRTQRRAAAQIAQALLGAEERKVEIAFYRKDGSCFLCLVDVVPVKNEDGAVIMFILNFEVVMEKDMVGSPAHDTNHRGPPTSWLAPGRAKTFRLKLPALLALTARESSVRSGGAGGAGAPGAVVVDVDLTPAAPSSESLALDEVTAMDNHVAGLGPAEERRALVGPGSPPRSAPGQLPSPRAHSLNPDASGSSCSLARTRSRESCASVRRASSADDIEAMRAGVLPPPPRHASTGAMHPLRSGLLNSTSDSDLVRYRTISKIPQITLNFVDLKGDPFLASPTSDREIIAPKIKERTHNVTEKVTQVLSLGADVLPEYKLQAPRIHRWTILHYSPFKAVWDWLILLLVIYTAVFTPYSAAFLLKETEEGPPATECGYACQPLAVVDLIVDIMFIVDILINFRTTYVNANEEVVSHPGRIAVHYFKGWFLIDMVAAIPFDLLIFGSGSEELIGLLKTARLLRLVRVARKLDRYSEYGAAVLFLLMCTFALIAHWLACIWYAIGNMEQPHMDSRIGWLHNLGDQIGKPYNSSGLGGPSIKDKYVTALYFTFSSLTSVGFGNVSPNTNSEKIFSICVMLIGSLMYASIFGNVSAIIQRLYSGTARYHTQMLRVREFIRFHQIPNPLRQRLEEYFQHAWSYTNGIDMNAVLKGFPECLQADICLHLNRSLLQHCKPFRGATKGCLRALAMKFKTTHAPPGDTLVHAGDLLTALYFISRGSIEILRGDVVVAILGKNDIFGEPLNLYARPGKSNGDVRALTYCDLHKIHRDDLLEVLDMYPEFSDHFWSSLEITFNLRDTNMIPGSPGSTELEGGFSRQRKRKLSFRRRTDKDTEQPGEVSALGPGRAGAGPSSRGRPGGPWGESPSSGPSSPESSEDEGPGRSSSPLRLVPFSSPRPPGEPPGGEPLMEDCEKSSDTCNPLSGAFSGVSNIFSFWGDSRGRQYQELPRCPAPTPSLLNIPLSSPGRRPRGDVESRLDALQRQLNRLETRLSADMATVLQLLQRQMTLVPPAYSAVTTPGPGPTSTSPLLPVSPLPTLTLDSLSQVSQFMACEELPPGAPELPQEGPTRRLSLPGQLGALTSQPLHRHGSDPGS

[26] = Cmax in mouse at 40 mg/kg, po after 24 hrs; assay type: ADME, organism-based; set-up: dose 40 mg/kg, route oral; conditions: in vivo
[27] = AUC (0 to t) in mouse at 40 mg/kg, po after 24 hrs; assay type: ADME, organism-based; set-up: time < 24 hr, dose 40 mg/kg, route oral; conditions: plasma
[28] = Elimination half life in mouse at 40 mg/kg, po after 24 hrs; assay type: ADME, organism-based; set-up: dose 40 mg/kg, route oral; conditions: in vivo, read-out: beta t1/2 (converted)
[29] = Oral bioavailability (0 to t) in mouse at 40 mg/kg after 24 hrs; assay type: ADME, organism-based; conditions: in vivo
[30] = Oral bioavailability (0 to infinity) in mouse at 40 mg/kg after 24 hrs; assay type: ADME, organism-based; conditions: in vivo
[31] = test system: MCF7; test: Selectivity ratio of IC50 for human WI38 cells to IC50 for ER positive human MCF7 cells; assay type: functional
[32] = test system: WI-38; test: Selectivity ratio of IC50 for human WI38 cells to IC50 for ER negative human MDA-MB-231 cells; assay type: functional
[33] = test system: HeLa; test: Selectivity ratio of IC50 for human WI38 cells to IC50 for human HeLa cells; assay type: functional
[34] = test system: PANC-1; test: Selectivity ratio of IC50 for human WI38 cells to IC50 for human PANC1 cells; assay type: functional
[35] = test system: DU-145; test: Selectivity ratio of IC50 for human WI38 cells to IC50 for AR negative human DU145 cells; assay type: functional
[36] = test system: LNCaP; test: Selectivity ratio of IC50 for human WI38 cells to IC50 for AR positive human LNCAP cells; assay type: functional
[37] = test system: HCT-116; test: Selectivity ratio of IC50 for human WI38 cells to IC50 for human HCT116 cells; assay type: functional
[38] = test system: A2780; test: Selectivity ratio of IC50 for human WI38 cells to IC50 for human A2780 cells; assay type: functional
[39] = test system: MCF7; test: Ratio of ON01910 IC50 to compound IC50 for ER positive human MCF7 cells; assay type: functional
[40] = test system: MDA-MB-231; test: Ratio of ON01910 IC50 to compound IC50 for ER negative human MDA-MB-231 cells; assay type: functional
[41] = test system: HeLa; test: Ratio of ON01910 IC50 to compound IC50 for human HeLa cells; assay type: functional
[42] = test system: PANC-1; test: Ratio of ON01910 IC50 to compound IC50 for human PANC1 cells; assay type: functional
[43] = test system: DU-145; test: Ratio of ON01910 IC50 to compound IC50 for AR negative human DU145 cells; assay type: functional
[44] = test system: LNCaP; test: Ratio of ON01910 IC50 to compound IC50 for AR positive human LNCAP cells; assay type: functional
[45] = test system: HCT-116; test: Ratio of ON01910 IC50 to compound IC50 for human HCT116 cells; assay type: functional
[46] = test system: A2780; test: Ratio of ON01910 IC50 to compound IC50 for human A2780 cells; assay type: functional
[47] = test system: LNCaP; test: Antiproliferative activity against AR positive human LNCAP cells assessed as cell growth inhibition after 72 hrs by MTT assay; assay type: functional
[48] = test system: DU-145; test: Antiproliferative activity against AR negative human DU145 cells assessed as cell growth inhibition after 72 hrs by MTT assay; assay type: functional; conditions: DU-145, 72 h

## COc1cc(OC)c(/C=C/S(=O)(=O)Cc2cnc(OC)c(NCC(N)=O)c2)c(OC)c1
[1]
  GI50: > 10000 nM
[2]
  GI50: 6590 nM

## CCN(C(C)=O)c1cc(CS(=O)(=O)/C=C/c2c(OC)cc(OC)cc2OC)cnc1OC
[1]
  GI50: > 10000 nM
[2]
  GI50: > 10000 nM

## COc1cc(OC)c(/C=C/S(=O)(=O)Cc2ccc(OC)c(NC(C)=O)n2)c(OC)c1
[3]
  GI50: 500 nM
[1]
  GI50: 660 nM
[2]
  GI50: 320 nM

## COc1cc(OC)c(/C=C/S(=O)(=O)Cc2ccc(OC)c(NCC(=O)[O-])c2)c(OC)c1.[Na+] [RIGOSERTIB SODIUM]
[4]
  Cmax: 400 nM
[5]
  AUC(0-t) at 24 h: 1 µM·h
[6]
  half-life: 2.6 h
[7]
  bioavailability: 9%

## CCOC(=O)CNc1cc(CS(=O)(=O)/C=C/c2c(OC)cc(OC)cc2OC)cnc1OC
[3]
  GI50: 409 nM
[1]
  GI50: 940 nM
[2]
  GI50: 517 nM

## COc1cc(OC)c(/C=C/S(=O)(=O)Cc2cnc(OC)c(NCC(=O)O)c2)c(OC)c1
[3]
  GI50: 376 nM
[2]
  GI50: 410 nM

## COc1cc(OC)c(/C=C/S(=O)(=O)Cc2cnc(OC)c(NC(C)=O)c2)c(OC)c1
[3]
  GI50: 7100 nM
[1]
  GI50: 7500 nM
[2]
  GI50: 8220 nM

## COc1cc(OC)c(C(C(c2cnc(OC)c([N+](=O)[O-])c2)S(C)(=O)=O)N2CCCCC2)c(OC)c1 (stereo not given)
[1]
  GI50: 6410 nM
[2]
  GI50: 4400 nM

## CCOC(=O)CNc1nc(CS(=O)(=O)/C=C/c2c(OC)cc(OC)cc2OC)ccc1OC
[3]
  GI50: 6910 nM
[1]
  GI50: 5710 nM
[2]
  GI50: 5450 nM

## CCCS(=O)(=O)Nc1cc(CS(=O)(=O)/C=C/c2c(OC)cc(OC)cc2OC)cnc1OC
[3]
  GI50: > 10000 nM
[1]
  GI50: > 10000 nM
[2]
  GI50: > 10000 nM

## COc1cc(OC)c(/C=C/S(=O)(=O)Cc2cnc(OC)c(NS(C)(=O)=O)c2)c(OC)c1
[8]
  logD: 1.52
[9]
  solubility kinetic: > 100 µM
[10]
  Papp A→B: 8.9 ×10⁻⁶ cm/s
[11]
  Papp B→A: 47.1 ×10⁻⁶ cm/s
[12]
  half-life: 1.17 h
[4]
  Cmax: 6300 nM
[5]
  AUC(0-t) at 24 h: 7.2 µM·h
[6]
  half-life: 3 h
[13]
  Activity: Active
[14]
  Activity: Active
[3]
  GI50: 317 nM
[1]
  GI50: 780 nM
[2]
  GI50: 570 nM
[15]
  GI50: 780 nM
[16]
  GI50: 671 nM
[17]
  GI50: 682 nM
[18]
  GI50: 875 nM
[19]
  GI50: > 10000 nM
[20]
  pKa: 7.66

## COc1cc(OC)c(/C=C/S(=O)(=O)Cc2ccc(OC)c(NCC(=O)O)n2)c(OC)c1
[3]
  GI50: 253 nM
[1]
  GI50: 545 nM
[2]
  GI50: 329 nM

## COc1cc(OC)c(/C=C/S(=O)(=O)Cc2ccc(OC)c(NCC(=O)O)c2)c(OC)c1
[21]
  Activity: Active
[22]
  Activity: inactive
[23]
  inhibition: Active
[24]
  inhibition: Active

## COc1cc(OC)c(/C=C/S(=O)(=O)Cc2cnc(OC)c([N+](=O)[O-])c2)c(OC)c1
[3]
  GI50: 7210 nM
[1]
  GI50: 5220 nM
[2]
  GI50: 7430 nM

## COc1cc(OC)c(/C=C/S(=O)(=O)Cc2ccc(OC)c([N+](=O)[O-])n2)c(OC)c1
[3]
  GI50: > 10000 nM
[1]
  GI50: 9970 nM
[2]
  GI50: > 10000 nM

## CCS(=O)(=O)Nc1cc(CS(=O)(=O)/C=C/c2c(OC)cc(OC)cc2OC)cnc1OC
[3]
  GI50: > 10000 nM
[1]
  GI50: > 10000 nM
[2]
  GI50: > 10000 nM

## COc1cc(OC)c(/C=C/S(=O)(=O)Cc2cnc(OC)c(N)c2)c(OC)c1
[8]
  logD: 2.34
[9]
  solubility kinetic: > 100 µM
[10]
  Papp A→B: 42.3 ×10⁻⁶ cm/s
[11]
  Papp B→A: 21.5 ×10⁻⁶ cm/s
[12]
  half-life: 0.333 h
[25]
  IC50: > 25000 nM
[26]
  Cmax: 3000 nM
[27]
  AUC(0-t) at 24 h: 24.6 µM·h
[28]
  half-life: 61.8 h
[29]
  bioavailability: 28%
[30]
  bioavailability: 100%
[31]
  Ratio IC50: >1400
[32]
  Ratio IC50: >1400
[33]
  Ratio IC50: >1400
[34]
  Ratio IC50: >1400
[35]
  Ratio IC50: >1400
[36]
  Ratio IC50: >1400
[37]
  Ratio IC50: >1400
[38]
  Ratio IC50: >1400
[39]
  Ratio IC50: 10
[40]
  Ratio IC50: 10
[41]
  Ratio IC50: 10
[42]
  Ratio IC50: 10
[43]
  Ratio IC50: 10
[44]
  Ratio IC50: 10
[45]
  Ratio IC50: 10
[46]
  Ratio IC50: 10
[3]
  GI50: 5 nM
[1]
  GI50: 6 nM
[2]
  GI50: 5 nM
[15]
  GI50: 6 nM
[16]
  GI50: 6 nM
[17]
  GI50: 4 nM
[18]
  GI50: < 1 nM
[47]
  GI50: 3 nM
[48]
  GI50: 5 nM
[19]
  GI50: > 10000 nM
[20]
  pKa: 2.39
